# Laboratory results as given in patent publication US12568972B2, “Pyridazinol compounds and derivatives, preparation methods, herbicidal compositions and applications thereof” (Qingdao Kingagroot Chemical Compound Co., Ltd., priority 2018, dated 2026).
# Tests used:
# Type in all cases: in vivo
# weeds = experiment: Control effect and synergistic effect of the mixture of (i) and (ii), postemergence (Gowing method); settings: Sisymbrium sophia, postemergence, 20 days after treatment
# Excerpt: Wherein, in the formula, X represented the fresh weight inhibition rate of the active ingredient A in a dosage of P, and Y represented the fresh weight inhibition rate of the active ingredient B in a dosage of Q. The statistic results are shown in Table 6.
# Chenopodiaceae = experiment: Post-emergence test, weed control effect; settings: Dose 3000 g/ha, after 3 weeks
# Outline: (§1)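 Score 0-10 (10 = completely dead, 1 = below 20%, 0 = no effect) from fresh-weight growth inhibition, read 3 weeks after a post-emergence spray. Greenhouse pot plants at 2-3 leaves; spray solution acetone/Tween-80/water with 80% vegetable oil methyl ester synergist at 1500 g/ha.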
# Veronica polita = experiment: Post-emergence test, weed control effect; settings: Dose 3000 g/ha, after 3 weeks
# Outline: as §1
# Amaranthus retroflexus = experiment: Post-emergence test, weed control effect; settings: Dose 3000 g/ha, after 3 weeks
# Outline: as §1
# Rorippa indica = experiment: Post-emergence test, weed control effect; settings: Dose 3000 g/ha, after 3 weeks
# Outline: as §1
structure (smiles),measurement,setting,value
"CC(C)CCCCCOC(=O)COc1ccc(Cl)cc1Cl [2,4-D iso-octyl ester]",Inhibitory effect of component (ii) when applied alone at same dose,weeds; 50 g a.i./ha,40%
"O=C(O)CCCOc1ccc(Cl)cc1Cl [2,4-DB]",Inhibitory effect of component (ii) when applied alone at same dose,weeds; 200 g a.i./ha,50%
Cc1ncccc1-c1nnc(C(F)(F)F)cc1O [Compound 973],"weed control effect (activity level), Chenopodiaceae",Chenopodiaceae,10
same,"weed control effect (activity level), Veronica polita",Veronica polita,10
same,"weed control effect (activity level), Amaranthus retroflexus",Amaranthus retroflexus,10
same,"weed control effect (activity level), Rorippa indica",Rorippa indica,10
Cc1ccc(-c2nnc(C(F)(F)F)cc2O)cn1 [Compound 974],"weed control effect (activity level), Chenopodiaceae",Chenopodiaceae,10
same,"weed control effect (activity level), Veronica polita",Veronica polita,10
same,"weed control effect (activity level), Amaranthus retroflexus",Amaranthus retroflexus,10
same,"weed control effect (activity level), Rorippa indica",Rorippa indica,10
Cc1ccncc1-c1nnc(C(F)(F)F)cc1O [Compound 975],"weed control effect (activity level), Chenopodiaceae",Chenopodiaceae,10
same,"weed control effect (activity level), Veronica polita",Veronica polita,10
same,"weed control effect (activity level), Amaranthus retroflexus",Amaranthus retroflexus,10
same,"weed control effect (activity level), Rorippa indica",Rorippa indica,10
Oc1cc(C(F)(F)F)nnc1-c1cccnc1C(F)(F)F [Compound 976],"weed control effect (activity level), Chenopodiaceae",Chenopodiaceae,10
same,"weed control effect (activity level), Veronica polita",Veronica polita,10
same,"weed control effect (activity level), Amaranthus retroflexus",Amaranthus retroflexus,10
same,"weed control effect (activity level), Rorippa indica",Rorippa indica,10
Oc1cc(C(F)(F)F)nnc1-c1cncc(C(F)(F)F)c1 [Compound 977],"weed control effect (activity level), Chenopodiaceae",Chenopodiaceae,10
same,"weed control effect (activity level), Veronica polita",Veronica polita,10
same,"weed control effect (activity level), Amaranthus retroflexus",Amaranthus retroflexus,10
same,"weed control effect (activity level), Rorippa indica",Rorippa indica,10
Oc1cc(C(F)(F)F)nnc1-c1cnccc1C(F)(F)F [Compound 978],"weed control effect (activity level), Chenopodiaceae",Chenopodiaceae,10
same,"weed control effect (activity level), Veronica polita",Veronica polita,10
same,"weed control effect (activity level), Amaranthus retroflexus",Amaranthus retroflexus,10
same,"weed control effect (activity level), Rorippa indica",Rorippa indica,10
N#Cc1ncccc1-c1nnc(C(F)(F)F)cc1O [Compound 979],"weed control effect (activity level), Chenopodiaceae",Chenopodiaceae,10
same,"weed control effect (activity level), Veronica polita",Veronica polita,10
same,"weed control effect (activity level), Amaranthus retroflexus",Amaranthus retroflexus,10
same,"weed control effect (activity level), Rorippa indica",Rorippa indica,10
N#Cc1ccncc1-c1nnc(C(F)(F)F)cc1O [Compound 980],"weed control effect (activity level), Chenopodiaceae",Chenopodiaceae,10
same,"weed control effect (activity level), Veronica polita",Veronica polita,10
same,"weed control effect (activity level), Amaranthus retroflexus",Amaranthus retroflexus,10
same,"weed control effect (activity level), Rorippa indica",Rorippa indica,10
N#Cc1ccc(-c2nnc(C(F)(F)F)cc2O)cn1 [Compound 983],"weed control effect (activity level), Chenopodiaceae",Chenopodiaceae,10
same,"weed control effect (activity level), Veronica polita",Veronica polita,10
same,"weed control effect (activity level), Amaranthus retroflexus",Amaranthus retroflexus,10
same,"weed control effect (activity level), Rorippa indica",Rorippa indica,10
N#Cc1cncc(-c2nnc(C(F)(F)F)cc2O)c1 [Compound 984],"weed control effect (activity level), Chenopodiaceae",Chenopodiaceae,10
same,"weed control effect (activity level), Veronica polita",Veronica polita,10
same,"weed control effect (activity level), Amaranthus retroflexus",Amaranthus retroflexus,10
same,"weed control effect (activity level), Rorippa indica",Rorippa indica,10
Oc1cc(C(F)(F)F)nnc1-c1cc(F)cnc1F [Compound 986],"weed control effect (activity level), Chenopodiaceae",Chenopodiaceae,10
same,"weed control effect (activity level), Veronica polita",Veronica polita,10
same,"weed control effect (activity level), Amaranthus retroflexus",Amaranthus retroflexus,10
same,"weed control effect (activity level), Rorippa indica",Rorippa indica,10
Oc1cc(C(F)(F)F)nnc1-c1c(F)ccnc1F [Compound 987],"weed control effect (activity level), Chenopodiaceae",Chenopodiaceae,10
same,"weed control effect (activity level), Veronica polita",Veronica polita,10
same,"weed control effect (activity level), Amaranthus retroflexus",Amaranthus retroflexus,10
same,"weed control effect (activity level), Rorippa indica",Rorippa indica,10
Oc1cc(C(F)(F)F)nnc1-c1cnc(F)c(F)c1 [Compound 988],"weed control effect (activity level), Chenopodiaceae",Chenopodiaceae,10
same,"weed control effect (activity level), Veronica polita",Veronica polita,10
same,"weed control effect (activity level), Amaranthus retroflexus",Amaranthus retroflexus,10
same,"weed control effect (activity level), Rorippa indica",Rorippa indica,10
Oc1cc(C(F)(F)F)nnc1-c1cnc(F)cc1F [Compound 989],"weed control effect (activity level), Chenopodiaceae",Chenopodiaceae,10
same,"weed control effect (activity level), Veronica polita",Veronica polita,10
same,"weed control effect (activity level), Amaranthus retroflexus",Amaranthus retroflexus,10
same,"weed control effect (activity level), Rorippa indica",Rorippa indica,10
Oc1cc(C(F)(F)F)nnc1-c1cncc(F)c1F [Compound 990],"weed control effect (activity level), Chenopodiaceae",Chenopodiaceae,10
same,"weed control effect (activity level), Veronica polita",Veronica polita,10
same,"weed control effect (activity level), Amaranthus retroflexus",Amaranthus retroflexus,10
same,"weed control effect (activity level), Rorippa indica",Rorippa indica,10
Oc1cc(C(F)(F)F)nnc1-c1ccc(Cl)nc1Cl [Compound 991],"weed control effect (activity level), Chenopodiaceae",Chenopodiaceae,10
same,"weed control effect (activity level), Veronica polita",Veronica polita,10
same,"weed control effect (activity level), Amaranthus retroflexus",Amaranthus retroflexus,10
same,"weed control effect (activity level), Rorippa indica",Rorippa indica,10
Oc1cc(C(F)(F)F)nnc1-c1cc(Cl)cnc1Cl [Compound 992],"weed control effect (activity level), Chenopodiaceae",Chenopodiaceae,10
same,"weed control effect (activity level), Veronica polita",Veronica polita,10
same,"weed control effect (activity level), Amaranthus retroflexus",Amaranthus retroflexus,10
same,"weed control effect (activity level), Rorippa indica",Rorippa indica,10
